According to patent US20240150365A1 (Hotspot Therapeutics, Inc., priority 2022, published 2024):
Like-named read-outs stand apart in the source and are kept apart here.

Tests used:
[1] = target: T1, MALT1 (Homo sapiens, UniProt Q9UDY8); test: MALT-1 Fluorogenic Peptide Cleavage Assay (MALT1 inhibition assay); format: biochemical; conditions: Avi-tagged FL MALT-1, Ac-LRSR-AMC peptide substrate, 30 min pre-incubation, 90 min reaction
T1 construct: Avi-tagged FL MALT-1 (Pharmaron, stored at −70° C.); Avi tag
T1 sequence (Q9UDY8 1-824): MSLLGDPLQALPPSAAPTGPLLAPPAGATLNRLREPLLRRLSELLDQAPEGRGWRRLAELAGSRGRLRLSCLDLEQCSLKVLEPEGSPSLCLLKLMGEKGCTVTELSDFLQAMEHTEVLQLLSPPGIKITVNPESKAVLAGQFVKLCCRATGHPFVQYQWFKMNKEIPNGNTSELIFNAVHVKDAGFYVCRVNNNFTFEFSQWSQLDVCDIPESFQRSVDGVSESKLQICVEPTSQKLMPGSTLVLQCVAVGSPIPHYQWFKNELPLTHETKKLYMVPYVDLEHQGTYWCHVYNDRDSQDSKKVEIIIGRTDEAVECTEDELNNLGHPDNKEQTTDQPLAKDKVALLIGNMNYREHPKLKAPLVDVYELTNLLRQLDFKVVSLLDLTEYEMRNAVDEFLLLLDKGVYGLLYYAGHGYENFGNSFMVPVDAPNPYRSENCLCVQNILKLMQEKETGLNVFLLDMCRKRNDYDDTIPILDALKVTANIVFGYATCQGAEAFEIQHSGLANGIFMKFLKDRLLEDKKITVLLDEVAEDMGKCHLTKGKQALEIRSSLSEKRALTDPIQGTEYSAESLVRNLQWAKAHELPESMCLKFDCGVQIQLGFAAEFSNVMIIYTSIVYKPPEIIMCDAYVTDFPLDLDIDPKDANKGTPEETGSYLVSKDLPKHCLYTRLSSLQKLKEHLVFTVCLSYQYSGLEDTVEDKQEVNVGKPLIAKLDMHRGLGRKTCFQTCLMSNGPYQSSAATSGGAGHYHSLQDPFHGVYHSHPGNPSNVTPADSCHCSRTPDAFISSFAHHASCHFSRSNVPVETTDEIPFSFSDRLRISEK
Outline: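 IC50 from sigmoidal fits of % inhibition, with fluorescence (ex 342, em 441 nm) from AMC released from the quenched LRSR peptide after 90 min at room temperature. Full-length Avi-tagged MALT1 saw compound for 30 min first; final DMSO 2%.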

[2] = system: NF-kB; test: NF-kB reporter assay in Jurkat cells stimulated with aCD3/aCD28/PMA; format: cell-based; conditions: read-out: NF-kB Reporter Assay IC50
Outline: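 Stimulation used final aCD3 5 μg/mL, aCD28 5 μg/mL and PMA 0.03 μg/mL for 4 hr at 37° C, after 1 hr compound pretreatment of 25,000 serum-starved Jurkat cells per well. One-Glo luminescence gave IC50 values.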

[3] = Homo sapiens, Jurkat, Jurkat cells, 1 hr compound incubation, aCD3/aCD28/PMA stimulation 4 hr, One-Glo readout
[4] = Jurkat cells, 1 hr compound incubation, aCD3/aCD28/PMA stimulation 4 hr, One-Glo readout

IC50 [1] [µM] | IC50 [2, 3] [µM] | IC50 [2, 4] [µM] | Compound | IC50 ([2]; Homo sapiens, Jurkat) [µM]
> 2.5 | < 0.4 | – | Cn1ncc2cccc(NS(=O)(=O)c3ccc(-c4cnn5c4COCC5)nc3)c21 [Example I-270, 6-(6,7-dihydro-4H-pyrazolo[5,1-c][1,4]oxazin-3-yl)-N-(1-methyl-1H-indazol-7-yl)pyridine-3-sulfonamide] | –
> 2.5 | < 0.4 | – | Cn1ncc2cccc(NS(=O)(=O)c3ccc(-c4cnn5c4CCCC5)nc3)c21 [Example I-272, N-(1-methyl-1H-indazol-7-yl)-6-(4,5,6,7-tetrahydropyrazolo[1,5-a]pyridin-3-yl)pyridine-3-sulfonamide] | –
< 0.4 | 0.4 to 1 | – | COc1ccc2c(F)nn(C)c2c1NS(=O)(=O)c1ccc(-n2cc(C(F)(F)F)cn2)nc1 [Example I-273, N-(3-fluoro-6-methoxy-1-methyl-1H-indazol-7-yl)-6-(4-(trifluoromethyl)-1H-pyrazol-1-yl)pyridine-3-sulfonamide] | –
> 2.5 | < 0.4 | – | Cc1c(-c2ccc(S(=O)(=O)Nc3cccc4cnn(C)c34)cn2)cnn1C1COC1 [Example I-274] | –
> 2.5 | 0.4 to 1 | – | Cc1nn(C2COC2)cc1-c1ccc(S(=O)(=O)Nc2cccc3cnn(C)c23)cn1 [Example I-275] | –
> 2.5 | < 0.4 | – | Cn1ncc2cccc(NS(=O)(=O)c3ccc(-n4cc(C(C)(C)C)cn4)nc3)c21 [Example I-276, 6-(4-tert-butylpyrazol-1-yl)-N-(1-methylindazol-7-yl)pyridine-3-sulfonamide] | –
> 2.5 | 0.4 to 1 | – | Cn1ncc2cccc(NS(=O)(=O)c3ccc(-n4cc(C(C)(C)O)cn4)nc3)c21 [Example I-277] | –
> 2.5 | > 2.5 | – | COc1ccc2cnn(C)c2c1NS(=O)(=O)c1ccc(-n2cc(C(C)(C)O)cn2)nc1 [Example I-278, 6-(4-(2-hydroxypropan-2-yl)-1H-pyrazol-1-yl)-N-(6-methoxy-1-methyl-1H-indazol-7-yl)pyridine-3-sulfonamide] | –
> 2.5 | < 0.4 | – | Cn1ncc2cccc(NS(=O)(=O)c3ccc(-n4cc(CO)cn4)nc3)c21 [Example I-279] | –
0.4 to 1 | < 0.4 | – | COc1ccc2cnn(C)c2c1NS(=O)(=O)c1ccc(-n2cc(C(C)O)cn2)nc1 (stereo not drawn) [Example I-280, 6-(4-(1-Hydroxyethyl)-1H-Pyrazol-1-yl)-N-(6-Methoxy-1-Methyl-1H-Indazol-7-yl)Pyridine-3-Sulfonamide] | –
1 to 2.5 | – | < 0.4 | COc1ccc2cnn(C)c2c1NS(=O)(=O)c1ccc(-n2cc(C(C)O)cn2)nc1 (stereo not drawn) [Example I-281, 6-(4-(1-Hydroxyethyl)-1H-Pyrazol-1-yl)-N-(6-Methoxy-1-Methyl-1H-Indazol-7-yl)Pyridine-3-Sulfonamide] | –
> 2.5 | 0.4 to 1 | – | CC(O)c1cnn(-c2ccc(S(=O)(=O)Nc3cccc4cnn(C)c34)cn2)c1 (stereo not drawn) [Example I-282] | –
> 2.5 | – | < 0.4 | CC(O)c1cnn(-c2ccc(S(=O)(=O)Nc3cccc4cnn(C)c34)cn2)c1 (stereo not drawn) [Example I-283] | –
0.4 to 1 | < 0.4 | – | COc1ccc2cnn(C)c2c1NS(=O)(=O)c1ccc(-n2cc(CO)cn2)nc1 [Example I-284, 6-[4-(hydroxymethyl)pyrazol-1-yl]-N-(6-methoxy-1-methylindazol-7-yl)pyridine-3-sulfonamide] | –
0.4 to 1 | < 0.4 | – | COc1ccc2cnn(C)c2c1NS(=O)(=O)c1ccc(-n2cc(C(C)(C)C)cn2)nc1 [Example I-285, 6-(4-tert-butylpyrazol-1-yl)-N-(6-methoxy-1-methylindazol-7-yl)pyridine-3-sulfonamide] | –
< 0.4 | < 0.4 | – | COc1ccc2cnn(C)c2c1NS(=O)(=O)c1ccc(-n2cnc(C(F)(F)F)c2)nc1 [Example I-286, N-(6-methoxy-1-methylindazol-7-yl)-6-[4-(trifluoromethyl)imidazol-1-yl]pyridine-3-sulfonamide] | –

IC50 [1] [µM] | IC50 [2, 3] [µM] | IC50 [2, 4] [µM] | Compound | IC50 ([2]; Homo sapiens, Jurkat) [µM]
1 to 2.5 | < 0.4 | – | COc1ccc2cnn(C)c2c1NS(=O)(=O)c1ccc(-c2cnn3c2CCC3)nc1 [Example I-287] | –
> 2.5 | < 0.4 | – | Cc1n[nH]c2cccc(NS(=O)(=O)c3ccc(-c4cnn5c4CCC5)nc3)c12 [Example I-288] | –
> 2.5 | 0.4 to 1 | – | COc1ncc2cnn(C)c2c1NS(=O)(=O)c1ccc(-c2cnn3c2CCC3)nc1 [Example I-289] | –
< 0.4 | < 0.4 | – | [2H]C([2H])([2H])n1ncc2cnc(OC)c(NS(=O)(=O)c3ccc(-n4cc(C(F)(F)F)cn4)nc3)c21 [Example I-290, N-(6-methoxy-1-(methyl-d3)-1H-pyrazolo[4,3-c]pyridin-7-yl)-6-(4-(trifluoromethyl)-1H-pyrazol-1-yl)pyridine-3-sulfonamide] | –
< 0.4 | < 0.4 | – | [2H]C([2H])([2H])n1ncc2cnc(OC)c(N(C)S(=O)(=O)c3ccc(-n4cc(C(F)(F)F)cn4)nc3)c21 [Example I-291, N-(6-methoxy-1-(methyl-d3)-1H-pyrazolo[4,3-c]pyridin-7-yl)-N-methyl-6-(4-(trifluoromethyl)-1H-pyrazol-1-yl)pyridine-3-sulfonamide] | –
> 2.5 | 0.4 to 1 | – | O=S(=O)(c1ccc(-n2cc(C(F)(F)F)cn2)nc1)N1CCCn2ncc3cccc1c32 [Example I-292, 1-((6-(4-(trifluoromethyl)-1H-pyrazol-1-yl)pyridin-3-yl)sulfonyl)-1,2,3,4-tetrahydro-[1,4]diazepino[3,2,1-hi]indazole] | –
> 2.5 | 0.4 to 1 | – | O=S(=O)(c1ccc(-n2cc(C(F)(F)F)cn2)nc1)N1CCCCn2ncc3cccc1c32 [Example I-293, 1-((6-(4-(trifluoromethyl)-1H-pyrazol-1-yl)pyridin-3-yl)sulfonyl)-2,3,4,5-tetrahydro-1H-[1,4]diazocino[3,2,1-hi]indazole] | –
> 2.5 | 1 to 2.5 | – | O=S(=O)(c1ccc(-n2cc(C(F)(F)F)cn2)nc1)N1CCn2ncc3cccc1c32 [Example I-294, 1-((6-(4-(trifluoromethyl)-1H-pyrazol-1-yl)pyridin-3-yl)sulfonyl)-2,3-dihydro-1H-pyrazolo[1,5,4-de]quinoxaline] | –
> 2.5 | < 0.4 | – | COc1ccc2[nH]nc(C)c2c1NS(=O)(=O)c1ccc(-c2cnn3c2CCC3)nc1 [Example I-295] | –
1 to 2.5 | < 0.4 | – | C=Cn1ncc2cccc(NS(=O)(=O)c3ccc(-n4cc(C(F)(F)F)cn4)nc3)c21 [Example I-296, 6-(4-(trifluoromethyl)-1H-pyrazol-1-yl)-N-(1-vinyl-1H-indazol-7-yl)pyridine-3-sulfonamide] | –
> 2.5 | > 2.5 | – | C=Cn1cc2cccc(NS(=O)(=O)c3ccc(-n4cc(C(F)(F)F)cn4)nc3)c2n1 [Example I-297] | –
> 2.5 | < 0.4 | – | Cn1ncc2cccc(NS(=O)(=O)c3ccc(-n4nc(C(F)(F)F)c5c4CCOC5)nc3)c21 [Example I-298] | –
> 2.5 | > 2.5 | – | COc1ncc2cnn(C)c2c1NS(=O)(=O)c1ccc(-c2cnn3c2OCCC3)nc1 [Example I-299] | –
< 0.4 | 0.4 to 1 | – | COc1ncc2cnn(C)c2c1NS(=O)(=O)c1ccc(-n2nc(C(F)(F)F)c3c2CCOC3)nc1 [Example I-300, N-(6-methoxy-1-methyl-1H-pyrazolo[4,3-c]pyridin-7-yl)-6-(3-(trifluoromethyl)-6,7-dihydropyrano[4,3-c]pyrazol-1(4H)-yl)pyridine-3-sulfonamide] | –
1 to 2.5 | 1 to 2.5 | – | COc1ncc2cnn(C)c2c1NS(=O)(=O)c1ccc(-c2cnn3c2COCC3)nc1 [Example I-301] | –
> 2.5 | < 0.4 | – | Cn1ncc2cccc(NS(=O)(=O)c3ccc(-c4cnn5c4OCCC5)nc3)c21 [Example I-302, N-(1-methylindazol-7-yl)-6-{5H,6H,7H-pyrazolo[3,2-b][1,3]oxazin-3-yl}pyridine-3-sulfonamide] | –

Compound | IC50 [1] [µM] | IC50 [2, 3] [µM] | IC50 [2, 4] [µM] | IC50 ([2]; Homo sapiens, Jurkat) [µM]
Cc1ncc(-c2ccc(S(=O)(=O)Nc3cccc4cnn(C)c34)cn2)n1C(F)(F)F [Example I-271, 6-(2-methyl-1-(trifluoromethyl)-1H-imidazol-5-yl)-N-(1-methyl-1H-indazol-7-yl)pyridine-3-sulfonamide] | > 2.5 | – | – | < 0.4
